Patent US8648076B2, “Cysteine protease inhibitors and their therapeutic applications” (Hybrigenics SA, priority 2005, dated 2014)
Read-outs that look alike come from different tables or passages of the source.

Legend:
[1] = system: HCT116 colon cancer cells; assay: HCT116 cell viability and proliferation assay (MTS); format: cell-based; details: HCT116 cells, 72 hours incubation, MTS, mean of 3 independent experiments, read-out: HCT116 D3 GI50
[2] = system: PC-3 prostate cancer cells; assay: PC3 cell viability and proliferation assay (MTS); format: cell-based; details: PC3 cells, 72 hours incubation, MTS, mean of 3 independent experiments, read-out: PC3 D3 GI50
USP7 = molecular target: T1, USP7 (Homo sapiens, UniProt Q93009); assay: USP7 activity assay; format: biochemical; details: 400 nM Ub-AMC, 152 pM enzyme, 30 min pre-incubation at 25° C., 60 min at 37° C.; sigmoidal fit; read-out: USP 7 (inhibition of cysteine protease activity)
T1 construct: His tag (from pFastBac-HT vector) (N); made in house; host or cells: insect cells (Sf9 or High Five), baculovirus
T1 sequence (Q93009 whole entry): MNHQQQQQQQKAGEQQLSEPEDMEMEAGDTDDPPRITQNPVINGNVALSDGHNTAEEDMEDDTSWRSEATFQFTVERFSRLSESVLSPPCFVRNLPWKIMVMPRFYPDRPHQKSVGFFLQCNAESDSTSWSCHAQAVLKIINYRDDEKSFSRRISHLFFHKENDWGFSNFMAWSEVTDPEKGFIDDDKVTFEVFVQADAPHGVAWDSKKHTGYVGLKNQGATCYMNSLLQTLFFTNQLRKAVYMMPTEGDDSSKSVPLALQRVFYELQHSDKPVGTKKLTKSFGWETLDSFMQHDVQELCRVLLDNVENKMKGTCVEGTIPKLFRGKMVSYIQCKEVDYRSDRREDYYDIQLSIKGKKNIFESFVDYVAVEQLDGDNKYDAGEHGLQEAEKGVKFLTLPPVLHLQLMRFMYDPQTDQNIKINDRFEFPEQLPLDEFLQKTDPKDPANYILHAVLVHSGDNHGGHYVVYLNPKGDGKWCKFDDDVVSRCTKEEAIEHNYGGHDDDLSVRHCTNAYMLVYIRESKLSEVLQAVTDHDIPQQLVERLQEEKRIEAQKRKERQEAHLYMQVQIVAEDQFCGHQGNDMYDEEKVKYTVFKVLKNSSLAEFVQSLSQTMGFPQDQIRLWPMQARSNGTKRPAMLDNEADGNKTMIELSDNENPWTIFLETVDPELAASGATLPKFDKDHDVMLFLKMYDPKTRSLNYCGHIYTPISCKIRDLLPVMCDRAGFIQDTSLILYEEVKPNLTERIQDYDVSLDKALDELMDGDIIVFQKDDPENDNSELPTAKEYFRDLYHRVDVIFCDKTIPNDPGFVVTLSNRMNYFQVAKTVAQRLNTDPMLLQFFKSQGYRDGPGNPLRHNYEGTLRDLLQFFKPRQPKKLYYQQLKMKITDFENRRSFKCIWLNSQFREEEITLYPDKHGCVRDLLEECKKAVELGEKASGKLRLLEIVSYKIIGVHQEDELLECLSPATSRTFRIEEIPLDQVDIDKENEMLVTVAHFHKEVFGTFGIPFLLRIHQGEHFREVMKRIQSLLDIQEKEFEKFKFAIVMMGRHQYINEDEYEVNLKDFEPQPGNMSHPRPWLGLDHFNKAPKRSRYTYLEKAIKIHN

USP8 = molecular target: T2, USP8 (Homo sapiens, UniProt P40818); assay: USP8 activity assay; format: biochemical; details: 400 nM Ub-AMC, pH8.8, 30 min pre-incubation at 25° C., 60 min at 37° C.; sigmoidal fit; AF: Autofluorescent; read-out: USP 8 (inhibition of cysteine protease activity)
T2 sequence (P40818 1-1118): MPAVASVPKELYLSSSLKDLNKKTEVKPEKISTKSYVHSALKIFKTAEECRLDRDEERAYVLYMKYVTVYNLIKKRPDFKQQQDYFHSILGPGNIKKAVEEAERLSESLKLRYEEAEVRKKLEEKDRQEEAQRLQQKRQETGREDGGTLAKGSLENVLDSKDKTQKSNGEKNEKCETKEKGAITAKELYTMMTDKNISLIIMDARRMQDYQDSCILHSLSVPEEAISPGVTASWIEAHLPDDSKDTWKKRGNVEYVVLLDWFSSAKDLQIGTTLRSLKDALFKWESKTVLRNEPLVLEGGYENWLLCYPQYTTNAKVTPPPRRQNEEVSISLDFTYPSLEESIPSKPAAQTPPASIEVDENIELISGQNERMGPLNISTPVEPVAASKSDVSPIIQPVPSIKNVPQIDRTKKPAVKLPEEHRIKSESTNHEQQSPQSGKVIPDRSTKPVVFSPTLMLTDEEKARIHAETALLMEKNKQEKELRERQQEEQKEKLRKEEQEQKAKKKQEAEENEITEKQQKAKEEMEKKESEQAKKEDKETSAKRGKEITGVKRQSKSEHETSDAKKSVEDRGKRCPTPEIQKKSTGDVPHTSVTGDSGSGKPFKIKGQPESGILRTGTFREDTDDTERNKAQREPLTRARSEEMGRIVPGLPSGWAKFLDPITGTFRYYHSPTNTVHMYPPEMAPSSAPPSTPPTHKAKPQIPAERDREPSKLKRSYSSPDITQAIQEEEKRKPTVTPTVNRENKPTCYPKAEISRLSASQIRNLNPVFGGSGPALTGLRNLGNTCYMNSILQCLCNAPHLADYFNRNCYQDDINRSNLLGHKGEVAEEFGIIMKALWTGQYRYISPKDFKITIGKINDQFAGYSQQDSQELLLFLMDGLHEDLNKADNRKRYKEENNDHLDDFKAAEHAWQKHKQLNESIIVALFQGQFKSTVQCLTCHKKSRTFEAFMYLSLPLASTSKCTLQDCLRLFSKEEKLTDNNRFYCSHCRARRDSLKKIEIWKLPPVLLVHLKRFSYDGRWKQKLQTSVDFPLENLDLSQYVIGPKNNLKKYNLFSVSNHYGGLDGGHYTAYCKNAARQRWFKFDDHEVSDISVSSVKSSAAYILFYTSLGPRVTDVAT

Uch-L3 = molecular target: T3, Uch-L3 (Homo sapiens, UniProt P15374); assay: UCH-L3 activity assay; format: biochemical; details: 400 nM Ub-AMC, 13 pM enzyme, 30 min pre-incubation at 25° C., 60 min at 37° C.; sigmoidal fit; AF: Autofluorescent; read-out: Uch-L3 (inhibition of cysteine protease activity)
T3 sequence (P15374 1-230): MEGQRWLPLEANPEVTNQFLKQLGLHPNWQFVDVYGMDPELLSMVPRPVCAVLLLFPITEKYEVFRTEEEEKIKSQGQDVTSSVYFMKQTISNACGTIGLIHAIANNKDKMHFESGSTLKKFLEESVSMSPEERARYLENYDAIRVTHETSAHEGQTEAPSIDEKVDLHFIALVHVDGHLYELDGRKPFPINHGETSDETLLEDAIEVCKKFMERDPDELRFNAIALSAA
Protocol: Bovine Serum Albumin 0.05 mg·ml^−1 pH7.6). Compounds stocks (100 mM) were stored at −20° C. in DMSO. […] Reactions were performed as duplicates in Black LJL 96 well plates (HE microplates; Molecular Devices; 20 μl final reaction volume). The substrate concentration for Uch-L3 was 400 nM Ub-AMC (Boston Biochem). The concentration of the enzyme (Uch-L3) in specificity assays was 13 pM. The concentrations were determined in order to perform specificity assays under initial velocities at fixed substrate concentration. Compounds were pre-incubated with enzymes for 30 minutes at 25° C. Reactions were initiated by addition of substrate to the plates containing the enzymes (+/−compounds) diluted in assay buffer. Reactions were incubated for 60 minutes at 37° C. Reactions were stopped by adding acetic acid (100 mM final). Readings were performed on a Pherastar Fluorescent Reader (BMG). δ Emission 380 nm; δ Excitation=460 nm. Data (mean values+/− standard deviation) were analyzed as % of control (no compound) and plotted as percentage versus the Log of the compound concentration using GraphPad (Prism). Data were fitted to a sigmoidal model (variable slope).

Row | SMILES | GI50 ([1]; Homo sapiens, HCT-116) [nM] | GI50 ([2]; Homo sapiens, PC-3) [nM] | further results
1 | COc1nc2c(nc1C#N)C(O)c1ccccc1-2 (stereo not shown) [Example 2, 9-hydroxy-3-methoxy-9H-indeno[1,2-b]pyrazine-2-carbonitrile] | > 10000 |  | GI50 ([2]; Homo sapiens, PC-3, 72 h): > 10000 nM
2 | N#Cc1nc2c(nc1C#N)-c1cc(Cl)ccc1C2=O [Example 25, 6-Chloro-9-oxo-9H-indeno[1,2-b]pyrazine-2,3-dicarbonitrile] | 190 | 1400 | 
3 | N#Cc1nc2c(nc1C(N)=O)-c1ccccc1/C2=N\O [Example 33, 2-cyano-9-[hydroxyimino]-9H-indeno[1,2-b]pyrazine-3-carboxylic acid amide] |  |  | IC50 (USP7): 13000 nM; IC50 (USP8): 733 nM; IC50 (Uch-L3): 596 nM; GI50 [1]: 1600 nM; GI50 [2]: 1200 nM

The next lines start with results.

Row | GI50 ([1]; Homo sapiens, HCT-116) [nM] | GI50 ([2]; Homo sapiens, PC-3) [nM] | SMILES | further results
4 | 500 | 390 | CON=C1c2cc(Cl)ccc2-c2nc(C#N)c(C#N)nc21 [Example 24a, 7-Chloro-9-methoxyimino-9H-indeno[1,2-b]pyrazine-2,3-dicarbonitrile] | 
5 | 940 | 620 | C=CCON=C1c2cc(Cl)ccc2-c2nc(C#N)c(C#N)nc21 [Example 24b, 9-Allyloxyimino-7-chloro-9H-indeno[1,2-b]pyrazine-2,3-dicarbonitrile] | 
